System: Haemonchus contortus
Test: Haemonchus contortus/sheep: nematode egg count in feces before and after oral treatment
Assay type: in vivo
Details: Haemonchus contortus, po, read-out: effective dose (Dosis effectiva)
Description: Haemonchus contortus/sheep
Sheep experimentally infected with Haemonchus contortus were treated after expiry of the prepatency time of the parasite.
The active compounds were administered orally in gelatin capsules as pure active ingredient.
The efficacy is determined by quantitatively counting the nematode eggs excreted with the feces before and after treatment.
Complete cessation of oviposition after treatment means that the nematodes have been expelled or are so damaged that they no longer produce eggs (Dosis effectiva).

SMILES | minimal effective dose [mg/kg]
CC(C)C[C@H]1C(=O)O[C@H](Cc2ccc(NCc3ccco3)cc2)C(=O)N(C)[C@@H](CC(C)C)C(=O)O[C@H](C)CN(C)[C@@H](CC(C)C)C(=O)O[C@H](Cc2ccc(NCc3ccco3)cc2)C(=O)N(C)[C@@H](CC(C)C)C(=O)O[C@H](C)CN1C [Example 19, 8,20-bis-N-[4-(2-furylmethylanino)benzyl]-5,11,17,23-tetraisobutyl-2,4,10,14,16,22-hexamethyl-1,7,13,19-tetraoxa-4,10,16,22-tetraaza-cyclotetracosan-6,9,12,18,21,24-hexaone] | < 1
CC(C)C[C@H]1C(=O)O[C@H](Cc2ccc(-n3cccc3)cc2)C(=O)N(C)[C@@H](CC(C)C)C(=O)O[C@H](C)CN(C)[C@@H](CC(C)C)C(=O)O[C@H](Cc2ccc(-n3cccc3)cc2)C(=O)N(C)[C@@H](CC(C)C)C(=O)O[C@H](C)CN1C [Example 14, 8,20-bis-[4-(1-pyrrolyl)-benzyl]-5,11,17,23-tetraisobutyl-2,4,10,14,16,22-hexamethyl-1,7,13,19-tetraoxa-4,10,16,22-tetraaza-cyclotetracosan-6,9,12,18,21,24-hexaone] | < 1
CC(C)C[C@H]1C(=O)O[C@H](Cc2ccc(N3CCOCC3)cc2)C(=O)N(C)[C@@H](CC(C)C)C(=O)O[C@H](C)CN(C)[C@@H](CC(C)C)C(=O)O[C@H](Cc2ccccc2N2CCOCC2)C(=O)N(C)[C@@H](CC(C)C)C(=O)O[C@H](C)CN1C [Example 6, 5,11,17,23-tetraisobutyl-2,4,10,14,16,22-hexamethyl-8-[-4-(N-morpholinyl)benzyl]-20-[2-(N-morpholinyl)benzyl]-1,7,13,19-tetraoxa-4,10,16,22-tetraaza-cyclotetracosan-6,9,12,18,21,24-hexaone] | < 1
CC(C)C[C@H]1C(=O)O[C@H](Cc2ccccc2)CN(C)[C@@H](CC(C)C)C(=O)O[C@H](C)CN(C)[C@@H](CC(C)C)C(=O)O[C@H](Cc2ccccc2)CN(C)[C@@H](CC(C)C)C(=O)O[C@H](C)CN1C [Example 2, 8,20-dibenzyl-5,11,17,23-tetraisobutyl-2,4,10,14,16,22-hexamethyl-1,7,13,19-tetraoxa-4,10,16,22-tetraazacyclotetracosan-6,12,18,24-tetraone] | < 1
COCCN(CCOC)c1ccc(CC2OC(=O)C(CC(C)C)N(C)CC(C)OC(=O)C(CC(C)C)N(C)C(=O)C(Cc3ccc(N(CCOC)CCOC)cc3)OC(=O)C(CC(C)C)N(C)CC(C)OC(=O)C(CC(C)C)N(C)C2=O)cc1 (stereo not drawn) [Example 16-c, 8,20-bis-[4-bis-(β-methoxyethyl)aminobenzyl)-5,11,17,23-tetraisobutyl-2,4,10,14,16,22-hexamethyl-1,7,13,19-tetraoxa-4,10,16,22-tetraazacyclotetracosan-6,9,12,18,21,24-hexaone] | < 1
CC(C)C[C@H]1C(=O)O[C@H](Cc2ccccc2)C(=O)N(C)[C@@H](CC(C)C)C(=O)O[C@H](C)CN(C)[C@@H](CC(C)C)C(=O)O[C@H](Cc2ccccc2)C(=O)N(C)[C@@H](CC(C)C)C(=O)O[C@H](C)CN1C [Example 1-b, 8,20-dibenzyl-5,11,17,23-tetraisobutyl-2,4,10,14,16,22-hexamethyl-1,7,13,19-tetraoxa-4,10,16,22-tetraaza-cyclotetracosan-6,9,12,18,21,24-hexaone] | < 1
CC(=O)N1CCN(S(=O)(=O)c2ccc(CC3OC(=O)C(CC(C)C)N(C)CC(C)OC(=O)C(CC(C)C)N(C)C(=O)C(Cc4ccc(S(=O)(=O)O)cc4)OC(=O)C(CC(C)C)N(C)CC(C)OC(=O)C(CC(C)C)N(C)C3=O)cc2)CC1 (centres unmarked) [Example 21-b, 8-[4-(4-acetylpiperazin-1-yl)-sulfonyl-benzyl]-20-(4-sulfobenzyl)-5,11,17,23-tetraisobutyl-2,4,10,14,16,22-hexamethyl-1,7,13,19-tetraoxa-4,10,16,22-tetraaza-cyclotetracosan-6,9,12,18,21,24-hexaone] | 1

Same assay, conditions: sheep experimentally infected with Haemonchus contortus; oral, gelatin capsules, pure active ingredient; complete cessation of oviposition after treatment

SMILES | effective dose (Dosis effectiva) [mg/kg]
COCCNc1ccc(CC2OC(=O)C(CC(C)C)N(C)C(=O)C(C)OC(=O)C(CC(C)C)N(C)C(=O)C(Cc3ccc(N(CCOC)CCOC)cc3)OC(=O)C(CC(C)C)N(C)CC(C)OC(=O)C(CC(C)C)N(C)C2=O)cc1 (stereo not drawn) [Example 17-a, 8(or 20)-[4-bis-(β-methoxyethyl)aminobenzyl]-20(or 8)-(4-β-methoxyethylaminobenzyl)-5,11,17,23-tetraisobutyl-2,4,10,14,16,22-hexamethyl-1,7,13,19-tetraoxa-4,10,16,22-tetraaza-cyclotetracosan-6,9,12,15,18,21,24-heptaone] | <1

Same assay, conditions: sheep experimentally infected with Haemonchus contortus; oral, gelatin capsules, pure active ingredient; complete cessation of oviposition after treatment; read-out: effective dose (Dosis effectiva)

SMILES | minimal effective dose [mg/kg]
COCCNc1ccc(CC2OC(=O)C(CC(C)C)N(C)CC(C)OC(=O)C(CC(C)C)N(C)C(=O)C(Cc3ccc(NCCOC)cc3)OC(=O)C(CC(C)C)N(C)CC(C)OC(=O)C(CC(C)C)N(C)C2=O)cc1 (stereo not drawn) [Example 16-a, 8,20-bis-(4-β-methoxyethylaminobenzyl)-5,11,17,23-tetraisobutyl-2,4,10,14,16,22-hexamethyl-1,7,13,19-tetraoxa-4,10,16,22-tetraaza-cyclotetracosan-6,9,12,18,21,24-hexaone] | < 1
CC(C)CC1C(=O)OC(C)CN(C)C(CC(C)C)C(=O)OC(Cc2ccc(N3CCOCC3)cc2)C(=O)N(C)C(CC(C)C)C(=O)OC(C)CN(C)C(CC(C)C)C(=O)OC(Cc2ccc(N3CCOCC3)cc2)CN1C (centres unmarked) [Example 7-c, 5,11,17,23-tetraisobutyl-2,4,10,14,16,22-hexamethyl-8,20-bis-[4-(N-morpholinyl)benzyl]-1,7,13,19-tetraoxa-4,10,16,22-tetraaza-cyclotetracosan-6,9,12,18,24-pentaone] | < 1
CC(C)CC1C(=O)OC(C)CN(C)C(CC(C)C)C(=O)OC(Cc2ccc(N3CCOCC3)cc2)CN(C)C(CC(C)C)C(=O)OC(C)CN(C)C(CC(C)C)C(=O)OC(Cc2ccc(N3CCOCC3)cc2)CN1C (centres unmarked) [Example 7-d, 5,11,17,23-tetraisobutyl-2,4,10,14,16,22-hexamethyl-8,20-bis-[4-(N-morpholinyl)benzyl]-1,7,13,19-tetraoxa-4,10,16,22-tetraaza-cyclotetracosan-6,12,18,24-tetraone] | < 1
CC(C)C[C@H]1C(=O)O[C@H](Cc2ccc(N3CCOCC3)cc2)C(=O)N(C)[C@@H](CC(C)C)C(=O)O[C@H](C)CN(C)[C@@H](CC(C)C)C(=O)O[C@H](Cc2ccc(N3CCOCC3)cc2)C(=O)N(C)[C@@H](CC(C)C)C(=O)O[C@H](C)CN1C [Example 5, 5,11,17,23-tetraisobutyl-2,4,10,14,16,22-hexamethyl-8,20-bis-[4-(N-morpholinyl)benzyl]-1,7,13,19-tetraoxa-4,10,16,22-tetraaza-cyclotetracosan-6,9,12,18,21,24-hexaone] | < 1

System: not given
Test: not given
Details: not given

SMILES | melting point [°C]
CC(C)C[C@H]1C(=O)O[C@H](Cc2ccccc2)C(=O)N(C)[C@@H](CC(C)C)C(=O)O[C@H](C)CN(C)[C@@H](CC(C)C)C(=O)O[C@H](Cc2ccccc2)C(=O)N(C)[C@@H](CC(C)C)C(=O)O[C@H](C)CN1C [Example 1-b, 8,20-dibenzyl-5,11,17,23-tetraisobutyl-2,4,10,14,16,22-hexamethyl-1,7,13,19-tetraoxa-4,10,16,22-tetraaza-cyclotetracosan-6,9,12,18,21,24-hexaone] | 149 to 150
CC(C)C[C@H]1C(=O)O[C@H](Cc2ccc(OCc3ccco3)cc2)C(=O)N(C)[C@@H](CC(C)C)C(=O)O[C@H](C)CN(C)[C@@H](CC(C)C)C(=O)O[C@H](Cc2ccc(OCc3ccco3)cc2)C(=O)N(C)[C@@H](CC(C)C)C(=O)O[C@H](C)CN1C (stereo in doubt) | 116 to 119

— patent US6355615B1, “Desoxycyclodepsipeptides and their use for combatting endoparasites” (Bayer Aktiengesellschaft, priority 1997, dated 2002)
